The ED50 is the midpoint of the dose-response relation. A word on the Ki: it is the equilibrium dissociation constant of an inhibitor or competing ligand from its target.

Counter-ions that a name gives are not always drawn. Like-named read-outs stand apart in the source and are kept apart here.

Results on four compounds are retold here after patent publication US20090048243A1, “THERAPEUTIC AGENT FOR ATTENTION-DEFICIT HYPERACTIVITY DISORDER” (MITSUBISHI PHARMA CORPORATION, priority 2005, published 2009).

In data set [1] the test system is rats with juvenile dopamine neulolysis due to 6-OH-DA treatment. Put plainly: Suppressive effect on increased motor activity in rats with juvenile dopamine neulolysis due to 6-OH-DA treatment. Format: in vivo, rat. Conditions: for ED50: Rattus norvegicus, read-out: ED50 for the suppression of increased motor activity due to the 6-OH-DA treatment as 100%; for Effect on increased motor activity due to the 6-OH-DA treatment: compound A 1, 3 or 10 mg/kg, Atomoxetine 1, 3, 10 or 30 mg/kg, vs 0.5% HPMC control. The method, then:
Suppressive effect on increased motor activity in rats with juvenile dopamine neulolysis due to 6-OH-DA treatment Male SD rats (Charles River Japan) were pre-treated with desipramine (Sigma Ltd.) in accordance with the method of Zhang et al. (Neuropsychopharmacology 2001 November;25(5):624-32) on day 5 after birth, after which 6-hydroxydopamine (hereinafter referred to as 6-OH-DA) (Sigma Ltd.) was administered to the cerebral ventricle on one side. During 12 to 18 days after birth, acclimation to a motor activity measurement apparatus (Toyo Sangyo) was performed three times; on day 19 after birth, motor activity was measured and the animals were grouped. […] For control, 0.5% HPMC (hydroxypropylmethylcellulose) was orally administered.

In the next data set the target is T1, 5-HT2A receptor (Rattus norvegicus, UniProt P14842).
T1 construct: A crude synaptosome fraction was separated from the cerebral cortex of Wistar rats; from tissue; host or cells: Wistar rat cerebral cortex, crude synaptosome fraction
Put plainly: Specific 5-HT2A receptor binding test (tritiated ketanserin, cerebral cortex crude synaptosome fraction). Conditions: Wistar rat cerebral cortex synaptosome; tritiated ketanserin 0.2 nmol/L; 37° C., 20 minutes. Here is the method:
A specific 5-HT2A receptor binding test was performed in accordance with a publicly known method (Molecular Pharmacology, Vol.21, p.301, 1981).
A crude synaptosome fraction was separated from the cerebral cortex of Wistar rats at 6 to 12 weeks of age (SEAC Yoshitomi), suspended in 50 mmol/L tris-HCl buffer solution (pH 7.7) (Nacalai Tesque, Inc.), and used in the experiments. Next, each test compound at several different concentrations and tritiated ketanserin (final concentration 0.2 nmol/L) (Japan Radioisotope) were added to the synaptosome suspension, and they were reacted at 37° C. for 20 minutes. After the reaction, the reaction liquor was suction-filtered through a Whatman GF/B filter (NeuroScience, Inc.), and the filter was washed with 50 mmol/L tris-HCl buffer solution (pH 7.7), after which radioactivity remaining in the filter was measured using a liquid scintillation counter (Aloka Co., Ltd.). Non-specific binding was determined in the presence of 10^−5 mmol/L mianserin (Sigma Ltd.). 50% inhibitory concentrations were graphically calculated, and inhibition constants (Ki values) were determined.

Data set [2] relates to norepinephrine uptake into mouse cerebral synaptosome. The data set is described as follows: Norepinephrine uptake inhibitory action in crude synaptosome fraction. Format: biochemical. As to conditions: male ddy mouse hyppocampus synaptosome; tritiated norepinephrine; 37° C., 10 minutes; read-out: 50% inhibitory concentration (IC50) for norepinephrine uptake into mouse cerebral synaptosome. The method, then:
Using a publicly known method (Journal of Pharmacology and Experimental Therapeutics, Vol.165, p.78, 1969) with partial modification, norepinephrine uptake inhibitory action was measured.
A crude synaptosome fraction was separated from the hyppocampus of a male ddy mouse, suspended in Krebs-Henseleit buffer solution (pH 7.4), and used in the experiments. Next, each test compound at several different concentrations was added to the synaptosome suspension and pre-incubated for 5 minutes, after which tritiated norepinephrine (Japan Radioisotope) was added to the reaction liquor, and they were reacted at 37° C. for 10 minutes. After the reaction, the reaction liquor was suction-filtered through a Whatman GF/B filter (NeuroScience, Inc.), and the filter was washed with Krebs-Henseleit buffer solution (pH 7.4), after which radioactivity remaining in the filter was measured using a liquid scintillation counter (Packard company, 3380 model). Norepinephrine concentration dependent uptake was obtained by subtracting the uptake at 0° C. from the uptake at 37° C. 50% inhibitory concentrations were graphically calculated, and inhibition constants (Ki values) were determined.

The next data set relates to normal rats. The data set is described as follows: Effect on motor activity in normal rats. Conditions: oral (FIG. 1-B). Format: in vivo, rat.

T1 sequence (P14842 whole entry): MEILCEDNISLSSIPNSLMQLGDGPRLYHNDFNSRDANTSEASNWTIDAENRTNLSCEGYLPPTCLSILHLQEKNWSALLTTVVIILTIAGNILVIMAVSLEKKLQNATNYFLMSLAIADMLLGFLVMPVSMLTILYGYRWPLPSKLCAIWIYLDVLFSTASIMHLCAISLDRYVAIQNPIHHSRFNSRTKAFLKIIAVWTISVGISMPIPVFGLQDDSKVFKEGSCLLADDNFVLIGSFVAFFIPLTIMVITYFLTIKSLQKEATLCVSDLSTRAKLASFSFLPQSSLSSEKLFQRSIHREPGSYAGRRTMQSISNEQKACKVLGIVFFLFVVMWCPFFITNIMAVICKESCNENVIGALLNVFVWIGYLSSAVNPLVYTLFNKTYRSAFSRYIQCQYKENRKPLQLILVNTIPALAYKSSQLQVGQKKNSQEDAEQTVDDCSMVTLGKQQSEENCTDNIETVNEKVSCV

As for `CNCCC(Oc1ccccc1C)c1ccccc1.Cl` (single isomer, unassigned; (-)) [Atomoxetine, (−)-N-methyl-3-((2-methylphenyl)oxy)-3-phenyl-1-aminopropane hydrochloride, reference compound], the median effective dose (ED50) in data set [1] (po) was found to be 24 mg/kg. For the same compound, the “Effect on increased motor activity due to the 6-OH-DA treatment” value in data set [1] (oral) is listed as “dose-dependently suppressed, but no significant suppression was observed”.

Take `c1csc(Cc2ccccc2OCC2CNCCO2)c1` (racemic) [teniloxazine, (±)-2-[[o-(2-thenyl)phenoxy]methyl]morpholine maleic acid salt, reference compound]: the inhibitory constant (Ki) at 5-HT2A receptor was 49 nM. For the same compound, the IC50 in data set [2] was 12 nM.

`c1csc(Cc2ccccc2OC[C@H]2CNCCO2)c1` [B, R-2-[[o-(2-thenyl)phenoxy]methyl]morpholine maleic acid salt]: the inhibitory constant (Ki) on 5-HT2A receptor stood at 1000 nM. In addition, the IC50 in data set [2] stood at 33 nM.

Regarding `c1csc(Cc2ccccc2OC[C@@H]2CNCCO2)c1` [compound A, S-2-[[o-(2-thenyl)phenoxy]methyl]morpholine maleic acid salt], in the data set with normal rats, the “Suppression of motor activity in normal rats” value is “no significant suppression of motor activity was observed”. Moreover, the Ki at 5-HT2A receptor was 26 nM. Besides, the ED50 in data set [1] (oral, motor activity during 30 minutes following 1 hour after administration, linear regression) came out at 1.7 mg/kg. Also, the “Dose from which a significant difference in suppression of increased motor activity was observed” value in data set [1] (oral, P<0.01 versus control (Dunnett method)) is recorded as at least 3 mg/kg. Also, the “Effect on increased motor activity due to the 6-OH-DA treatment” value in data set [1] (oral) is “dose-dependently inhibited”. Moreover, the IC50 in data set [2] is 2.6 nM.
